Results published in patent publication US4117145A, “1-Substituted pyrazoles” (Bayer Aktiengesellschaft, priority 1975, dated 1978).

Tested on: thromb formation (left jugular vein, rats)
Test: Antithrombotic action: thromb formation in supercooled left jugular vein of rats, thromb weighed 4 hours later
Type: in vivo, rat
Description: The left jugular vein of rats weighing 170 to 180 g was exposed under ether narcosis and supercooled to -12° C for 2 minutes to stimulate thromb formation. The thromb was isolated from the vein 4 hours later, and was weighed. The test animals were given the test preparation in tragacanth mucilage immediately before supercooling the wall of the blood vessel. As a result, the protective antithrombotic activity was tested in the first 4 hours after stimulating thromb formation.

## Cc1cc(OC(=O)c2ccco2)n(CCOc2ccc3ccccc3c2)n1 [Example 20, 5-(Furyl-(2)-carbonyloxy)-3-methyl-1-(2-(β-naphthyloxy)-ethyl)-pyrazole]
After a 4 hour period of action
  reduction of size of the thrombs: 61%
rats, 10 mg/kg, administered orally immediately before supercooling, thromb isolated 4 hours later, 12 experiments, control 115 ± 12 (14 experiments)
  Thromb size, mean value: 45 ± 10 µg
rats, 10 mg/kg, administered orally, versus control animals without active compound
  Inhibition in %: 61%
